Assay results taken from patent US20080009418A1, “Selective Inhibitors” (Alchemia LTD., priority 2004, published 2008).

Tests used:
Human neurokinin (NK1) = molecular target: T1, Human neurokinin (NK1) (Homo sapiens, UniProt P25103); experiment: Radioligand binding, human neurokinin NK1 membranes, filtration, [125I]-Substance P; conditions: compound at 10 μM; human neurokinin NK1 membranes
T1 construct: purchased Perkin Elmer Biosignal
Procedure, shortened: (§1)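 Filtration binding on cloned human receptor membranes (1 Unit/well), [125I]-Substance P for NK1 and [3H]-Diprenorphine for KOP, 1 h at room temperature. Filters PEI-presoaked, washed with cold 50 mM Tris-HCl pH 7.4, counted by scintillation; percent inhibition calculated, reference ligand defining non-specific binding.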

Human Melanocortin (MC3) = molecular target: T2, Human Melanocortin (MC3) (Homo sapiens, UniProt P41968); experiment: Radioligand binding, human melanocortin MC3 membranes, FlashPlate, [125I]-NDP-αMSH; conditions: compound at 10 μM; human melanocortin MC3 membranes
T2 construct: purchased Perkin Elmer Biosignal
Procedure, shortened: (§2)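 Cloned human receptor membranes were coated onto FlashPlate wells and incubated with radioligand and compound (added from a 0.5 mM DMSO daughter plate) for 1 hour at room temperature in the dark. Scintillation counting gave percent inhibition, with DMSO defining total and reference ligand defining non-specific binding.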

[1] = molecular target: T3, Human melanin-concentrating hormone (MCH1) (Homo sapiens, UniProt Q99705); experiment: Radioligand binding, human melanin-concentrating hormone MCH1 membranes, FlashPlate, [125I]-S36057; conditions: compound at 10 μM; human MCH1 membranes
T3 construct: purchased Perkin Elmer Biosignal
Procedure, shortened: as §2

Human melanocortin (MC5) = molecular target: T4, Human melanocortin (MC5) (Homo sapiens, UniProt P33032); experiment: Radioligand binding, human melanocortin MC5 membranes, FlashPlate, [125I]-NDP-αMSH; conditions: compound at 10 μM; human melanocortin MC5 membranes
T4 construct: purchased Perkin Elmer Biosignal
Procedure, shortened: as §2

Human μ-opioid (MOP) = molecular target: T5, Human μ-opioid (MOP) (Homo sapiens, UniProt P35372); experiment: Radioligand binding, human μ-opioid (MOP) membranes, FlashPlate, [3H]-Naloxone; conditions: compound at 10 μM; human μ-opioid (MOP) membranes
T5 construct: purchased Perkin Elmer Biosignal
Procedure, shortened: as §2

Human opioid (ORL1) = molecular target: T6, Human opioid (ORL1) (Homo sapiens, UniProt P41146); experiment: Radioligand binding, human opioid ORL1 membranes, FlashPlate, [125I]-Nociceptin; conditions: compound at 10 μM; human ORL1 membranes
T6 construct: purchased Perkin Elmer Biosignal
Procedure, shortened: as §2

[2] = molecular target: T7, Human neuropeptide Y (NPY-Y1) (Homo sapiens, UniProt P25929); experiment: Radioligand binding, human neuropeptide Y NPY-Y1 membranes, FlashPlate, [125I]-PYY; conditions: compound at 10 μM; human NPY-Y1 membranes
T7 construct: purchased Perkin Elmer Biosignal
T7 sequence (P25929 1-384): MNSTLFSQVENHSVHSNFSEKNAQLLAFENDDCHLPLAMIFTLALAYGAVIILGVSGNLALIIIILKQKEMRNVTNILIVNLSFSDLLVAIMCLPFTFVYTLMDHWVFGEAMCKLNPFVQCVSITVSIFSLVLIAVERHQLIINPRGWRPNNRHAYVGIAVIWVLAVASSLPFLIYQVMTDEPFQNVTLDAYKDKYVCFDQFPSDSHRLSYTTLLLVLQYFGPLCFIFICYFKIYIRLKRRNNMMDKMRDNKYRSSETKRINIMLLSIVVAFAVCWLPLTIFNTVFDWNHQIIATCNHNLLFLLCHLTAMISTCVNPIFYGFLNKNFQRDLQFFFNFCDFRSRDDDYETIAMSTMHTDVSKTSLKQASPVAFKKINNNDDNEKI
Procedure, shortened: as §2

Human κ-Opioid (KOP) = molecular target: T8, Human κ-Opioid (KOP) (Homo sapiens, UniProt P41145); experiment: Radioligand binding, human κ-opioid (KOP) membranes, filtration, [3H]-Diprenorphine; conditions: compound at 10 μM; human κ-opioid (KOP) membranes
T8 construct: purchased Perkin Elmer Biosignal
Procedure, shortened: as §1

Human Melanocortin (MC4) = molecular target: T9, Human Melanocortin (MC4) (Homo sapiens, UniProt P32245); experiment: Radioligand binding, human melanocortin MC4 membranes, FlashPlate, [125I]-NDP-αMSH; conditions: compound at 10 μM; human melanocortin MC4 membranes
T9 construct: purchased Perkin Elmer Biosignal
Procedure, shortened: as §2

Mouse urotensin (mUR2) = molecular target: T10, Mouse urotensin (mUR2) (Mus musculus, UniProt Q8VIH9); experiment: Radioligand binding, mouse urotensin mUR2 membranes, FlashPlate, [125I]-Urotensin II; conditions: compound at 10 μM; mouse urotensin mUR2 membranes
T10 construct: purchased Perkin Elmer Biosignal
T10 sequence (Q8VIH9 1-385): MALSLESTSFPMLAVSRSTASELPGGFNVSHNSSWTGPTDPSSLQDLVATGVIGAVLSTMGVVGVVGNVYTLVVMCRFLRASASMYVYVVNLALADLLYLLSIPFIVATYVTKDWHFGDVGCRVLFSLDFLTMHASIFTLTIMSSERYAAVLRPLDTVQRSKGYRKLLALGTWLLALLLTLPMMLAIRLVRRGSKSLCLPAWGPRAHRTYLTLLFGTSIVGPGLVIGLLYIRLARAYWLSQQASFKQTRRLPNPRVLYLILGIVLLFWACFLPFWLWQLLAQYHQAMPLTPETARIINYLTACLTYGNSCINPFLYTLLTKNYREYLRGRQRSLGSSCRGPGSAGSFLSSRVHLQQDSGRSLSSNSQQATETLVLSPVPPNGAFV
Procedure, shortened: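 Cloned mouse urotensin (mUR2) receptor membranes from Perkin Elmer Biosignal were immobilized in FlashPlate microplates using a proprietary coating. Each well got 19.5 μl buffer, then 0.5 μl of DMSO, reference ligand, or compound. Adding 5 μl of [125I]-Urotensin II, diluted to 5× final concentration in binding buffer, started binding. Plates were sealed with TopSeal-A and incubated 1 hour at room temperature in the dark. Wells were counted for 30 seconds each on a TopCount after a 60-second delay, and percentage inhibition was calculated.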

Human δ-opioid (DOP) = molecular target: T11, Human δ-opioid (DOP) (Homo sapiens, UniProt P41143); experiment: Radioligand binding, human δ-opioid (DOP) membranes, FlashPlate, [3H]-Bremazocine; conditions: compound at 10 μM; human δ-opioid (DOP) membranes
T11 construct: purchased Perkin Elmer Biosignal
Procedure, shortened: as §2

T2 sequence (P41968 whole entry): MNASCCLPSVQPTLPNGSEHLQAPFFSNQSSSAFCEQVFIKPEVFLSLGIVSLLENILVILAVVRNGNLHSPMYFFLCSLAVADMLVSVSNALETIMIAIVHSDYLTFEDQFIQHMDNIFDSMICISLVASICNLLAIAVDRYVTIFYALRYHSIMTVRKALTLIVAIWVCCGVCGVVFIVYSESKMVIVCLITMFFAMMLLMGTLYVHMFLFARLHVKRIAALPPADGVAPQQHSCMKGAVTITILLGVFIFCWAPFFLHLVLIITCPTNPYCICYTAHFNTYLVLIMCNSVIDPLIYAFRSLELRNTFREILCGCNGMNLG
T4 sequence (P33032 whole entry): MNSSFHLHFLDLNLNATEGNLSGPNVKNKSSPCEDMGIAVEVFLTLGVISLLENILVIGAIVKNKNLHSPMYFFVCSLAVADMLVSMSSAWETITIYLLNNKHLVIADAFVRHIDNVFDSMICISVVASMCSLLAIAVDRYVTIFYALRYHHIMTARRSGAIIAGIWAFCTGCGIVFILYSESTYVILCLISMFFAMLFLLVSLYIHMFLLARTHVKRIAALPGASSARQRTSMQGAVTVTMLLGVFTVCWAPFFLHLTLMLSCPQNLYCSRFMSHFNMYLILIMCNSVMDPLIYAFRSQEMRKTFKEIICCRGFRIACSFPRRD
T5 sequence (P35372 whole entry): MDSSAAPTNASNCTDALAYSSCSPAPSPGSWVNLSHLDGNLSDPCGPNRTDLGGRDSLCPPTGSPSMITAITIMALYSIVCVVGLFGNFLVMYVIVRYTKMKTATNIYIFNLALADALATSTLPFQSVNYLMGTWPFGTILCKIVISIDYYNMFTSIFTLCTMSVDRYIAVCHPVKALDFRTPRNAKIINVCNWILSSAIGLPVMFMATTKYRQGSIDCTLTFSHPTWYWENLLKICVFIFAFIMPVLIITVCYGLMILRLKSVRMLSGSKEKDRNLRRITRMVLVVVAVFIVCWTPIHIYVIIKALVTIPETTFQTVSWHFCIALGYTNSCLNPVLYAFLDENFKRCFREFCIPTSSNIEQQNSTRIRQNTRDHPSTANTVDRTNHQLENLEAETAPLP
T11 sequence (P41143 whole entry): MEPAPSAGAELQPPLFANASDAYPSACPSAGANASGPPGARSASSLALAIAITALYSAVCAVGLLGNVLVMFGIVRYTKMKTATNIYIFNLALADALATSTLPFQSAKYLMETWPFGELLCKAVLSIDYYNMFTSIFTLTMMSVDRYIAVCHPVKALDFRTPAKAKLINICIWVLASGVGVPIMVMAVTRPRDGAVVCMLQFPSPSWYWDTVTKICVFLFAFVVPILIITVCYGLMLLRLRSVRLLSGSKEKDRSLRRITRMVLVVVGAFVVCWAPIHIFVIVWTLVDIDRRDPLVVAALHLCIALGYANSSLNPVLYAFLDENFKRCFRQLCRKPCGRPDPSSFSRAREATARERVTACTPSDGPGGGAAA
T1 sequence (P25103 whole entry): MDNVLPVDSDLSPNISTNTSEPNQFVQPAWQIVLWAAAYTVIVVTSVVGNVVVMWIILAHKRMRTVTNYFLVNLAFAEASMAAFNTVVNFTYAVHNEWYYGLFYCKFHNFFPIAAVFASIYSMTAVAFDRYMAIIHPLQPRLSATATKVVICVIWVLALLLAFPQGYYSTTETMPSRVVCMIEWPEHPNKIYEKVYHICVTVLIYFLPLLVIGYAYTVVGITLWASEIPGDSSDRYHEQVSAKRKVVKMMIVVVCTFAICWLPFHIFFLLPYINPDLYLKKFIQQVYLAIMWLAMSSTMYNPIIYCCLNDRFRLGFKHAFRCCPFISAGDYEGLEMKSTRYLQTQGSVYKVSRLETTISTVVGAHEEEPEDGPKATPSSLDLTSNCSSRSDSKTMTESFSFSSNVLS
T3 sequence (Q99705 whole entry): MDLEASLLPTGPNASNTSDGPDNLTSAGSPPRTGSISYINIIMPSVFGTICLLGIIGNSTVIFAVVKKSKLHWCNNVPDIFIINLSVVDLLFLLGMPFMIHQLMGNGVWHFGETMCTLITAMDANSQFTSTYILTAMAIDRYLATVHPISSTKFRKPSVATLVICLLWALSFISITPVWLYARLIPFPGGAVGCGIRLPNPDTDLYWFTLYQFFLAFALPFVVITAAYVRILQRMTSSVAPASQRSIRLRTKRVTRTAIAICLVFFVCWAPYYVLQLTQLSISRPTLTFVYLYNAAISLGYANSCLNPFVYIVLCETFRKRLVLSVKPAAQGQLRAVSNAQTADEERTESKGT
T8 sequence (P41145 whole entry): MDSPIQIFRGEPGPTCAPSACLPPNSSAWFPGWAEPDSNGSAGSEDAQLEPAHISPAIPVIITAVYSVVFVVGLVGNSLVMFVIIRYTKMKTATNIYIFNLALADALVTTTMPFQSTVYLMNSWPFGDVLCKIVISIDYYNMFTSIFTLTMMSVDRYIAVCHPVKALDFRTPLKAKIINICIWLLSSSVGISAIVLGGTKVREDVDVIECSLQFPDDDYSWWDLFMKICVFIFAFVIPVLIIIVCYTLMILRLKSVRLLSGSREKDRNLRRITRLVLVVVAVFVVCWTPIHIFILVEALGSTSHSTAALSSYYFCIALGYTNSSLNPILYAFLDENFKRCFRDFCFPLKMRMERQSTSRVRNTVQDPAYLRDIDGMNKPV
T6 sequence (P41146 whole entry): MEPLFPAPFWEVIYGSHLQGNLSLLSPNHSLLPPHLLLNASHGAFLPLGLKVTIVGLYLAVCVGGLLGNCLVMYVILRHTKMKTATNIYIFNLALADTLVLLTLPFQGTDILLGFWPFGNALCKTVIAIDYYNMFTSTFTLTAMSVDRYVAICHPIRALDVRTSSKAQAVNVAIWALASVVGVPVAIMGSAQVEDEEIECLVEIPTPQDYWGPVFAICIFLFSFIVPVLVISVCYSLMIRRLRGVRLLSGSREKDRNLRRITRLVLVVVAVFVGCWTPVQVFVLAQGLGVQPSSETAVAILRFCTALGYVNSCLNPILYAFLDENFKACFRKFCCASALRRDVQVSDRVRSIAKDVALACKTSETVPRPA
T9 sequence (P32245 whole entry): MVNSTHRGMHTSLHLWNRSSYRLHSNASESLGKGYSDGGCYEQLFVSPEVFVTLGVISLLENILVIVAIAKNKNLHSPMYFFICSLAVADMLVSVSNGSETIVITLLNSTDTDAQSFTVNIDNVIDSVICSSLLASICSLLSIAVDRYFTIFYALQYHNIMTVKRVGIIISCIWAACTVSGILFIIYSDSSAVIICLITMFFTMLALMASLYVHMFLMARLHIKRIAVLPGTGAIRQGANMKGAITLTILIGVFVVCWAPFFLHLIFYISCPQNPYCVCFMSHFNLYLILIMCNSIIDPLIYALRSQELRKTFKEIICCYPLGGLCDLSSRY

Compound | A8 radioligand binding inhibition (Human neurokinin (NK1)) | A3 radioligand binding inhibition (Human Melanocortin (MC3)) | A6 radioligand binding inhibition [1] | A5 radioligand binding inhibition (Human melanocortin (MC5)) | A7 radioligand binding inhibition (Human μ-opioid (MOP)) | A10 radioligand binding inhibition (Human opioid (ORL1)) | A9 radioligand binding inhibition [2] | A2 radioligand binding inhibition (Human κ-Opioid (KOP)) | A4 radioligand binding inhibition (Human Melanocortin (MC4)) | A11 radioligand binding inhibition (Mouse urotensin (mUR2)) | A1 radioligand binding inhibition (Human δ-opioid (DOP))
COC[C@H]1OC(OCc2ccccc2)[C@H](NC(=O)CNC(=N)N)[C@@H](OCc2ccc(Cl)cc2)[C@@H]1O (stereo partly drawn) [compound 27] | − (“−” indicates less than 50% inhibition at 10 μM) | − (“−” indicates less than 50% inhibition at 10 μM) | − (“−” indicates less than 50% inhibition at 10 μM) | + (“+” indicates greater than 50% inhibition at 10 μM) | − (“−” indicates less than 50% inhibition at 10 μM) | − (“−” indicates less than 50% inhibition at 10 μM) | − (“−” indicates less than 50% inhibition at 10 μM) | − (“−” indicates less than 50% inhibition at 10 μM) | − (“−” indicates less than 50% inhibition at 10 μM) | − (“−” indicates less than 50% inhibition at 10 μM) | − (“−” indicates less than 50% inhibition at 10 μM)
COC[C@H]1OC(OCc2ccc(Cl)cc2)[C@H](NC(=O)CNC(=N)N)[C@@H](OCc2ccc(-c3ccccc3)cc2)[C@@H]1O (stereo partly drawn) [compound 28] | + (“+” indicates greater than 50% inhibition at 10 μM) | − (“−” indicates less than 50% inhibition at 10 μM) | + (“+” indicates greater than 50% inhibition at 10 μM) | + (“+” indicates greater than 50% inhibition at 10 μM) | − (“−” indicates less than 50% inhibition at 10 μM) | − (“−” indicates less than 50% inhibition at 10 μM) | − (“−” indicates less than 50% inhibition at 10 μM) | − (“−” indicates less than 50% inhibition at 10 μM) | + (“+” indicates greater than 50% inhibition at 10 μM) | − (“−” indicates less than 50% inhibition at 10 μM) | − (“−” indicates less than 50% inhibition at 10 μM)
COC[C@H]1OC(OCc2ccc(Cl)cc2)[C@H](NC(=O)CCNC(=N)N)[C@@H](OCc2ccc(-c3ccccc3)cc2)[C@@H]1O (stereo partly drawn) [compound 29] | + (“+” indicates greater than 50% inhibition at 10 μM) | + (“+” indicates greater than 50% inhibition at 10 μM) | + (“+” indicates greater than 50% inhibition at 10 μM) | + (“+” indicates greater than 50% inhibition at 10 μM) | − (“−” indicates less than 50% inhibition at 10 μM) | − (“−” indicates less than 50% inhibition at 10 μM) | − (“−” indicates less than 50% inhibition at 10 μM) | − (“−” indicates less than 50% inhibition at 10 μM) | + (“+” indicates greater than 50% inhibition at 10 μM) | − (“−” indicates less than 50% inhibition at 10 μM) | − (“−” indicates less than 50% inhibition at 10 μM)
COC[C@H]1OC(OCc2ccc(Cl)cc2)[C@H](NC(=O)CCCNC(=N)N)[C@@H](OCc2ccc(-c3ccccc3)cc2)[C@@H]1O (stereo partly drawn) [compound 30] | + (“+” indicates greater than 50% inhibition at 10 μM) | + (“+” indicates greater than 50% inhibition at 10 μM) | + (“+” indicates greater than 50% inhibition at 10 μM) | + (“+” indicates greater than 50% inhibition at 10 μM) | + (“+” indicates greater than 50% inhibition at 10 μM) | − (“−” indicates less than 50% inhibition at 10 μM) | − (“−” indicates less than 50% inhibition at 10 μM) | − (“−” indicates less than 50% inhibition at 10 μM) | + (“+” indicates greater than 50% inhibition at 10 μM) | − (“−” indicates less than 50% inhibition at 10 μM) | − (“−” indicates less than 50% inhibition at 10 μM)
COC[C@H]1OC(OCc2ccc(Cl)cc2)[C@H](NC(=O)CNC(=N)N)[C@@H](OCc2ccc3ccccc3c2)[C@@H]1O (stereo partly drawn) [compound 31] | − (“−” indicates less than 50% inhibition at 10 μM) | + (“+” indicates greater than 50% inhibition at 10 μM) | − (“−” indicates less than 50% inhibition at 10 μM) | + (“+” indicates greater than 50% inhibition at 10 μM) | + (“+” indicates greater than 50% inhibition at 10 μM) | − (“−” indicates less than 50% inhibition at 10 μM) | − (“−” indicates less than 50% inhibition at 10 μM) | − (“−” indicates less than 50% inhibition at 10 μM) | − (“−” indicates less than 50% inhibition at 10 μM) | − (“−” indicates less than 50% inhibition at 10 μM) | − (“−” indicates less than 50% inhibition at 10 μM)
COC[C@H]1OC(OCc2ccc(Cl)cc2)[C@H](NC(=O)CCNC(=N)N)[C@@H](OCc2ccc3ccccc3c2)[C@@H]1O (stereo partly drawn) [compound 32] | + (“+” indicates greater than 50% inhibition at 10 μM) | − (“−” indicates less than 50% inhibition at 10 μM) | − (“−” indicates less than 50% inhibition at 10 μM) | + (“+” indicates greater than 50% inhibition at 10 μM) | − (“−” indicates less than 50% inhibition at 10 μM) | − (“−” indicates less than 50% inhibition at 10 μM) | − (“−” indicates less than 50% inhibition at 10 μM) | − (“−” indicates less than 50% inhibition at 10 μM) | − (“−” indicates less than 50% inhibition at 10 μM) | − (“−” indicates less than 50% inhibition at 10 μM) | + (“+” indicates greater than 50% inhibition at 10 μM)
